How the values were obtained:
Type in all cases: in vivo
Echinochloa crus-galli [1] = assay: Pre-emergence herbicidal effect; details: visual score after 3 weeks
From the text: (§1) Seeds of monocotyledonous and dicotyledonous weed plants and crop plants are laid out in wood-fibre pots in sandy loam and covered with soil. The compounds according to the invention formulated in the form of wettable powders (WP) or as emulsion concentrates (EC) are then applied as aqueous suspension or emulsion at a water application rate of 600 to 800 l/ha (converted) with the addition of 0.2% wetting agent to the surface of the covering soil. After the treatment, the pots are placed in a greenhouse and kept under good growth conditions for the trial plants. The damage to the test plants is scored visually after a test period of 3 weeks by comparison with untreated controls (herbicidal activity in percent (%): 100% activity=the plants have died, 0% activity=like control plants).

Lolium multiflorum [2] = assay: Pre-emergence herbicidal effect; details: visual score after 3 weeks
From the text: as §1

Alopecurus myosuroides [3] = assay: Pre-emergence herbicidal effect; details: visual score after 3 weeks
From the text: as §1

Setaria viridis [4] = assay: Pre-emergence herbicidal effect; details: visual score after 3 weeks
From the text: as §1

Echinochloa crus-galli [5] = assay: Post-emergence herbicidal effect; details: visual assessment after about 3 weeks
Method: (§2) Seeds of monocotyledonous and dicotyledonous weed and crop plants are laid out in sandy loam in wood-fibre pots, covered with soil and cultivated in a greenhouse under good growth conditions. 2 to 3 weeks after sowing, the test plants are treated at the one-leaf stage. The compounds according to the invention, formulated in the form of wettable powders (WP) or as emulsion concentrates (EC), are then sprayed as aqueous suspension or emulsion at a water application rate of 600 to 800 l/ha (converted) with the addition of 0.2% of wetting agent onto the green parts of the plants. After the test plants have been left to stand in the greenhouse under optimal growth conditions for about 3 weeks, the action of the preparations is assessed visually in comparison to untreated controls (herbicidal action in percent (%): 100% activity=the plants have died, 0% activity=like control plants).

Lolium multiflorum [6] = assay: Post-emergence herbicidal effect; details: visual assessment after about 3 weeks
Method: as §2

Alopecurus myosuroides [7] = assay: Post-emergence herbicidal effect; details: visual assessment after about 3 weeks
Method: as §2

Avena fatua [8] = assay: Post-emergence herbicidal effect; details: visual assessment after about 3 weeks
Method: as §2

Setaria viridis [9] = assay: Post-emergence herbicidal effect; details: visual assessment after about 3 weeks
Method: as §2

Avena fatua [10] = assay: Pre-emergence herbicidal effect; details: visual score after 3 weeks
From the text: as §1

| SMILES | Pre-emergence effectiveness ECHCG (Echinochloa crus-galli [1]; 80 g/ha) [%] | Pre-emergence effectiveness ECHCG (Echinochloa crus-galli [1]; 320 g/ha) [%] | Pre-emergence effectiveness LOLMU (Lolium multiflorum [2]; 320 g/ha) [%] | Pre-emergence effectiveness ALOMY (Alopecurus myosuroides [3]; 80 g/ha) [%] | Pre-emergence effectiveness ALOMY (Alopecurus myosuroides [3]; 320 g/ha) [%] | Pre-emergence effectiveness SETVI (Setaria viridis [4]; 80 g/ha) [%] | Pre-emergence effectiveness SETVI (Setaria viridis [4]; 320 g/ha) [%] | Post-emergence effectiveness ECHCG (Echinochloa crus-galli [5]; 20 g/ha) [%] | Post-emergence effectiveness ECHCG (Echinochloa crus-galli [5]; 80 g/ha) [%] | Post-emergence effectiveness LOLMU (Lolium multiflorum [6]; 20 g/ha) [%] | Post-emergence effectiveness LOLMU (Lolium multiflorum [6]; 80 g/ha) [%] | Post-emergence effectiveness ALOMY (Alopecurus myosuroides [7]; 20 g/ha) [%] | Post-emergence effectiveness ALOMY (Alopecurus myosuroides [7]; 80 g/ha) [%] | Post-emergence effectiveness AVEFA (Avena fatua [8]; 20 g/ha) [%] | Post-emergence effectiveness AVEFA (Avena fatua [8]; 80 g/ha) [%] | Post-emergence effectiveness SETVI (Setaria viridis [9]; 20 g/ha) [%] | Post-emergence effectiveness SETVI (Setaria viridis [9]; 80 g/ha) [%] | Pre-emergence effectiveness LOLMU (Lolium multiflorum [2]; 80 g/ha) [%] | Pre-emergence effectiveness AVEFA (Avena fatua [10]; 320 g/ha) [%] | Pre-emergence effectiveness AVEFA (Avena fatua [10]; 80 g/ha) [%] |
| --- | --- | --- | --- | --- | --- | --- | --- | --- | --- | --- | --- | --- | --- | --- | --- | --- | --- | --- | --- | --- |
| CC#Cc1cc(C)c(C2=C(OS(C)(=O)=O)C3(CCC(COC)C3)NC2=O)c(CC)c1 (stereo not drawn) [Example Ia-16] | 90 | 100 | 90 | 90 | 90 | 90 | 90 | – | – | – | – | – | – | – | – | – | – | – | – | – |
| CC#Cc1cc(C)c(C2=C(OC(=O)C(C)C)C3(CCC(COC)C3)NC2=O)c(CC)c1 (stereo not drawn) [Example Ia-9] | – | – | – | – | – | – | – | 100 | 100 | 90 | 90 | 100 | 100 | 90 | 90 | 100 | 100 | – | – | – |
| CC#Cc1cc(C)c(C2=C(O)C3(CCC(COC)C3)NC2=O)c(CC)c1 (stereo not drawn) [Example I-9] | 100 | 100 | 100 | 100 | 100 | 90 | 100 | 100 | 100 | 100 | 100 | 100 | 100 | 90 | 100 | 100 | 100 | 80 | 90 | – |
| CC#Cc1cc(C)c(C2=C(OC(=O)C(C)C)C3(CCC(COC)C3)NC2=O)c(CC)c1 (stereo not drawn) [Example Ia-6] | 100 | 100 | 100 | 100 | 100 | 100 | 100 | 100 | 100 | 90 | 90 | – | 100 | – | – | – | 100 | 100 | 90 | 90 |
| CCc1cc(C#CC2CC2)cc(C)c1C1=C(O)C2(CCC(COC)C2)NC1=O (stereo not drawn) [Example I-12] | 90 | 100 | 100 | – | 100 | 90 | 100 | 100 | 100 | – | 90 | – | 90 | 80 | 80 | 100 | 100 | 100 | 80 | 100 |
| CCc1cc(C#CC2CC2)cc(C)c1C1=C(OC(=O)C(C)C)C2(CCC(COC)C2)NC1=O (stereo not drawn) [Example Ia-11] | 100 | 100 | 100 | 100 | 100 | 100 | 100 | 100 | 100 | – | 90 | – | 90 | – | – | 80 | 90 | 100 | 80 | – |
